These results are taken from article PMC5396265 (Angewandte Chemie (International Ed. in English), 2017).

The target of the assay is SPM-1 (São Paulo metallo-β-lactamase; SPM-1* for 19F-labelled variants) (Pseudomonas aeruginosa, UniProt Q8G9Q0, Y58C). Particulars: Cys58 labelled with CH2COCF3 (BTFA); meropenem up to 400 uM, 40 uM protein, 50 mM Tris pH 7.5, 9:1 H2O/D2O; product formed in situ; presence of this pair in Table S3 not seen.
Chain of SPM-1 (São Paulo metallo-β-lactamase; SPM-1* for 19F-labelled variants) (Q8G9Q0 29-276 Y58C): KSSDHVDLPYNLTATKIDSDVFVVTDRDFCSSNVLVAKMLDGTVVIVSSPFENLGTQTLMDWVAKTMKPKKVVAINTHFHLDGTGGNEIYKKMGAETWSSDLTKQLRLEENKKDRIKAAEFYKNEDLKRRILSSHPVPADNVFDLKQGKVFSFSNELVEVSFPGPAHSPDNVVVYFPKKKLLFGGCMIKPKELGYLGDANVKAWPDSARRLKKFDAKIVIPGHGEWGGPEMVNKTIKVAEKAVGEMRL

As for `CC(O)C(C(=O)O)C1NC(C(=O)O)=C(SC2CNC(C(=O)N(C)C)C2)C1C` (stereo not shown) [hydrolyzed meropenem], the dissociation constant Kd is 100 ± 10 µM.

A word on the Kd: it is the equilibrium constant for the complex coming apart.
